Values of other authors in US10292931B2, “Stable liquid pharmaceutical composition based on trazodone” (AZIENDE CHIMICHE RIUNITE ANGELINI FRANCESCO A.C.R.A.F. …, priority 2007, dated 2019).
Structures can show the parent of a compound that is named as a salt. Where two headings read alike, the source gives them in different places.

Assays:
[1] = room temperature
[2] = 1% (w/v) aqueous solution

SMILES: O=c1n(CCCN2CCN(c3cccc(Cl)c3)CC2)nc2ccccn12 [trazodone hydrochloride]
- solubility ([1]; 95% ethanol): 1.6 g/100 ml
- solubility ([1]; benzene): practically insoluble
- solubility ([1]; chloroform): 3.6 g/100 ml
- solubility ([1]; ethyl ether): practically insoluble
- solubility ([1]; methanol): 2.5 g/100 ml
- solubility ([1]; octanol): less than 0.1 g/100 ml
- solubility ([1]; olive oil): less than 0.1 g/100 ml
- solubility ([1]; water): 1.8 g/100 ml
- pH of aqueous solution [2]: approx. 3.90
